Data as given in patent US20090233966A1, “Analogues of the Azinomycins as Anti-Tumour Agents and as Prodrugs” (School of Pharmacy, University of London, priority 2005, published 2009).
“Also recorded” adds a separate entry of the source. Like-named read-outs stand apart in the source and are kept apart here.

Legend:
Format in all cases: cell-based, human
NCl 60 cell panel = assay: NCI 60 cell line panel antitumour activity (whole panel); conditions: for GI50: MGMID line of the panel, read-out: anti-tumour activity GI50, MGMID; for antitumour activity in the NCl 60 cell line panel (in words): wide range of human tumour cell lines
Description: (§1) Examples 6 and 7 make use of the NCl 60 cell panel. This is an in vitro cell line screening project providing direct support to the National Cancer Institute's USA Developmental Therapeutic Programme for anti cancer discovery. The methodolgy for the cell line's operation is described by Boyd et al in Drug Development Research 1995, 34, 91-109.

435 = assay: NCI 60 cell panel growth inhibition; conditions: BREAST, read-out: anti-tumour activity GI50
Description: as §1

786-0 = assay: NCI 60 cell panel growth inhibition; conditions: RENAL, read-out: anti-tumour activity GI50
Description: as §1

A498 = assay: NCI 60 cell panel growth inhibition; conditions: RENAL, read-out: anti-tumour activity GI50
Description: as §1

A549/ATCC = assay: NCI 60 cell panel growth inhibition; conditions: NSCLC, read-out: anti-tumour activity GI50
Description: as §1

ACHN = assay: NCI 60 cell panel growth inhibition; conditions: RENAL, read-out: anti-tumour activity GI50
Description: as §1

BT-549 = assay: NCI 60 cell panel growth inhibition; conditions: BREAST, read-out: anti-tumour activity GI50
Description: as §1

CCRF-CEM = assay: NCI 60 cell panel growth inhibition; conditions: Leukemia, read-out: anti-tumour activity GI50
Description: as §1

COLO 205 = assay: NCI 60 cell panel growth inhibition; conditions: COLON, read-out: anti-tumour activity GI50
Description: as §1

DU-145 = assay: NCI 60 cell panel growth inhibition; conditions: PROST, read-out: anti-tumour activity GI50
Description: as §1

EKVX = assay: NCI 60 cell panel growth inhibition; conditions: NSCLC, read-out: anti-tumour activity GI50
Description: as §1

HCT-116 = assay: NCI 60 cell panel growth inhibition; conditions: COLON, read-out: anti-tumour activity GI50
Description: as §1

HOP-92 = assay: NCI 60 cell panel growth inhibition; conditions: NSCLC, read-out: anti-tumour activity GI50
Description: as §1

HS 578T = assay: NCI 60 cell panel growth inhibition; conditions: BREAST, read-out: anti-tumour activity GI50
Description: as §1

HT29 = assay: NCI 60 cell panel growth inhibition; conditions: read-out: anti-tumour activity GI50
Description: as §1

IGROV1 = assay: NCI 60 cell panel growth inhibition; conditions: read-out: anti-tumour activity GI50
Description: as §1

K562 = assay: NCI 60 cell panel growth inhibition; conditions: Leukemia, read-out: anti-tumour activity GI50
Description: as §1

KM12 = assay: NCI 60 cell panel growth inhibition; conditions: COLON, read-out: anti-tumour activity GI50
Description: as §1

LOX IMVI = assay: NCI 60 cell panel growth inhibition; conditions: MELAN, read-out: anti-tumour activity GI50
Description: as §1

M14 = assay: NCI 60 cell panel growth inhibition; conditions: MELAN, read-out: anti-tumour activity GI50
Description: as §1

MALME-3M = assay: NCI 60 cell panel growth inhibition; conditions: MELAN, read-out: anti-tumour activity GI50
Description: as §1

MCF7 = assay: NCI 60 cell panel growth inhibition; conditions: BREAST, read-out: anti-tumour activity GI50
Description: as §1

MDA-MB-231/ATCC = assay: NCI 60 cell panel growth inhibition; conditions: BREAST, read-out: anti-tumour activity GI50
Description: as §1

MOLT-4 = assay: NCI 60 cell panel growth inhibition; conditions: Leukemia, read-out: anti-tumour activity GI50
Description: as §1

NCI-H322M = assay: NCI 60 cell panel growth inhibition; conditions: NSCLC, read-out: anti-tumour activity GI50
Description: as §1

NCI-H460 = assay: NCI 60 cell panel growth inhibition; conditions: NSCLC, read-out: anti-tumour activity GI50
Description: as §1

NCI-H522 = assay: NCI 60 cell panel growth inhibition; conditions: NSCLC, read-out: anti-tumour activity GI50
Description: as §1

NCI/ADRRES = assay: NCI 60 cell panel growth inhibition; conditions: BREAST, read-out: anti-tumour activity GI50
Description: as §1

OVCAR-3 = assay: NCI 60 cell panel growth inhibition; conditions: OVAR, read-out: anti-tumour activity GI50
Description: as §1

OVCAR-4 = assay: NCI 60 cell panel growth inhibition; conditions: OVAR, read-out: anti-tumour activity GI50
Description: as §1

OVCAR-5 = assay: NCI 60 cell panel growth inhibition; conditions: OVAR, read-out: anti-tumour activity GI50
Description: as §1

OVCAR-8 = assay: NCI 60 cell panel growth inhibition; conditions: OVAR, read-out: anti-tumour activity GI50
Description: as §1

RPMI-8226 = assay: NCI 60 cell panel growth inhibition; conditions: Leukemia, read-out: anti-tumour activity GI50
Description: as §1

RXF 393 = assay: NCI 60 cell panel growth inhibition; conditions: RENAL, read-out: anti-tumour activity GI50
Description: as §1

SF-295 = assay: NCI 60 cell panel growth inhibition; conditions: CNS, read-out: anti-tumour activity GI50
Description: as §1

SF-539 = assay: NCI 60 cell panel growth inhibition; conditions: CNS, read-out: anti-tumour activity GI50
Description: as §1

SK-MEL-28 = assay: NCI 60 cell panel growth inhibition; conditions: MELAN, read-out: anti-tumour activity GI50
Description: as §1

SK-MEL-2 = assay: NCI 60 cell panel growth inhibition; conditions: MELAN, read-out: anti-tumour activity GI50
Description: as §1

SK-MEL-5 = assay: NCI 60 cell panel growth inhibition; conditions: MELAN, read-out: anti-tumour activity GI50
Description: as §1

SN12C = assay: NCI 60 cell panel growth inhibition; conditions: RENAL, read-out: anti-tumour activity GI50
Description: as §1

SNB-19 = assay: NCI 60 cell panel growth inhibition; conditions: CNS, read-out: anti-tumour activity GI50
Description: as §1

SR = assay: NCI 60 cell panel growth inhibition; conditions: Leukemia, read-out: anti-tumour activity GI50
Description: as §1

T-47D = assay: NCI 60 cell panel growth inhibition; conditions: BREAST, read-out: anti-tumour activity GI50
Description: as §1

TK10 = assay: NCI 60 cell panel growth inhibition; conditions: read-out: anti-tumour activity GI50
Description: as §1

U251 = assay: NCI 60 cell panel growth inhibition; conditions: read-out: anti-tumour activity GI50
Description: as §1

C=C(C)[C@H](OC(=O)c1cc(OC)cc2c(C)cccc12)C(=O)NCCN1CCCC(Cl)C1 (some centres unmarked) [Compound 21] was tested, and the GI50 (NCl 60 cell panel; Homo sapiens, 60 cell) was 5.12 µM, the “antitumour activity in the NCl 60 cell line panel (in words)” value (NCl 60 cell panel) was “significant cytotoxicity in the low micromolar range” and the GI50 (435; Homo sapiens, 60 cell) was 7.62 µM. For the same compound, the GI50 (786-0; Homo sapiens) was 4.48 µM, the GI50 (A498; Homo sapiens) was 0.19 µM and the GI50 (A549/ATCC; Homo sapiens) was 8.26 µM. It also gave a GI50 (ACHN; Homo sapiens) of 1.78 µM, a GI50 (BT-549; Homo sapiens) of 4.55 µM and a GI50 (CCRF-CEM; Homo sapiens) of 3.24 µM. The GI50 (COLO 205; Homo sapiens) was 6.08 µM, the GI50 (DU-145; Homo sapiens) was 5.15 µM and the GI50 (EKVX; Homo sapiens) was 11.4 µM. For the same compound, the GI50 (HCT-116; Homo sapiens) was 12.8 µM, the GI50 (HOP-92; Homo sapiens) was 4.12 µM and the GI50 (HS 578T; Homo sapiens) was 3.69 µM. It also gave a GI50 (HT29; Homo sapiens, HT-29, COLON) of 7.26 µM, a GI50 (IGROV1; Homo sapiens, IGROV-1, OVAR) of 4.21 µM and a GI50 (K562; Homo sapiens) of 5.16 µM. It also gave a GI50 (KM12; Homo sapiens) of 9.3 µM, a GI50 (LOX IMVI; Homo sapiens) of 2.84 µM and a GI50 (M14; Homo sapiens) of 1.75 µM. For the same compound, the GI50 (MALME-3M; Homo sapiens) was 7.51 µM, the GI50 (MCF7; Homo sapiens) was 4.62 µM and the GI50 (MDA-MB-231/ATCC; Homo sapiens) was 11 µM. It also gave a GI50 (MOLT-4; Homo sapiens) of 3.3 µM, a GI50 (NCI-H322M; Homo sapiens) of 8.07 µM and a GI50 (NCI-H460; Homo sapiens) of 6.26 µM. It also gave a GI50 (NCI-H522; Homo sapiens) of 5.1 µM, a GI50 (NCI/ADRRES; Homo sapiens, NCI/ADR-RES) of 12.8 µM and a GI50 (OVCAR-3; Homo sapiens) of 10.2 µM. It also gave a GI50 (OVCAR-4; Homo sapiens) of 20.9 µM, a GI50 (OVCAR-5; Homo sapiens) of 11.1 µM and a GI50 (OVCAR-8; Homo sapiens) of 32.9 µM. The GI50 (RPMI-8226; Homo sapiens) was 3.43 µM, the GI50 (RXF 393; Homo sapiens) was 19.1 µM and the GI50 (SF-295; Homo sapiens) was 4.35 µM. It also gave a GI50 (SF-539; Homo sapiens) of 0.45 µM, a GI50 (SK-MEL-28; Homo sapiens) of 8.48 µM and a GI50 (SK-MEL-2; Homo sapiens) of 7.81 µM. It also gave a GI50 (SK-MEL-5; Homo sapiens) of 1.99 µM, a GI50 (SN12C; Homo sapiens) of 3.76 µM and a GI50 (SNB-19; Homo sapiens) of 5.63 µM. The GI50 (SR; Homo sapiens) was 2.34 µM, the GI50 (T-47D; Homo sapiens, T47D) was 10.8 µM and the GI50 (TK10; Homo sapiens, TK-10, RENAL) was 12.1 µM. It also gave a GI50 (U251; Homo sapiens, U-251, CNS) of 2.63 µM.
In the case of COc1cc(C(=O)OC(C(=O)NCCN2CCCC(Cl)C2)C2(C)CO2)c2cccc(C)c2c1 (centres unmarked) [Compound 20], the GI50 (NCl 60 cell panel) is reported as 12.3 µM, the “antitumour activity in the NCl 60 cell line panel (in words)” value (NCl 60 cell panel) is reported as “low micromolar to high nanomolar activity; also recorded: significant cytotoxicity in the low micromolar range” and the GI50 435 is reported as 14.3 µM. It also gave a GI50 (786-0) of 100 µM, a GI50 (A498) of 17.7 µM and a GI50 (A549/ATCC) of 31.1 µM. The GI50 (ACHN) was 1.17 µM, the GI50 (BT-549) was 12.5 µM and the GI50 (CCRF-CEM) was 3.26 µM. For the same compound, the GI50 (COLO 205) was 13.8 µM, the GI50 (DU-145) was 4.49 µM and the GI50 (EKVX) was 17.5 µM. The GI50 (HCT-116) was 100 µM, the GI50 (HOP-92) was 13.8 µM and the GI50 (HS 578T) was 17.5 µM. It also gave a GI50 (HT29; COLON) of 11 µM, a GI50 (IGROV1; OVAR) of 12.1 µM and a GI50 (K562) of 8.33 µM. It also gave a GI50 (KM12) of 14.5 µM, a GI50 (LOX IMVI) of 3.62 µM and a GI50 (M14) of 100 µM. It also gave a GI50 (MALME-3M) of 14.8 µM, a GI50 (MCF7) of 14.7 µM and a GI50 (MDA-MB-231/ATCC) of 14 µM. It also gave a GI50 (MOLT-4) of 3 µM, a GI50 (NCI-H322M) of 17.9 µM and a GI50 (NCI-H460) of 13 µM. The GI50 (NCI-H522) was 7.77 µM, the GI50 (NCI/ADRRES) was 11.1 µM and the GI50 (OVCAR-3) was 18.6 µM. It also gave a GI50 (OVCAR-4) of 21.5 µM, a GI50 (OVCAR-5) of 16.1 µM and a GI50 (OVCAR-8) of 44.5 µM. For the same compound, the GI50 (RPMI-8226) was 4.18 µM, the GI50 (RXF 393) was 17.5 µM and the GI50 (SF-295) was 13.1 µM. It also gave a GI50 (SF-539) of 6.27 µM, a GI50 (SK-MEL-28) of 11.6 µM and a GI50 (SK-MEL-2) of 18.6 µM. For the same compound, the GI50 (SK-MEL-5) was 1.56 µM, the GI50 (SN12C) was 6.76 µM and the GI50 (SNB-19) was 14.3 µM. For the same compound, the GI50 (SR) was 2.02 µM, the GI50 (T-47D) was 23 µM and the GI50 (TK10; RENAL) was 23.4 µM. It also gave a GI50 (U251; CNS) of 7.82 µM.
